Our source for the mutagenic call values is PubChem BioAssay AID1259407 (Chemical Carcinogenesis Research Information System (CCRIS), 2018).

For the data set, the system named is CCRIS mutagenicity, Ames/micronucleus/aberration tests. Kind of data set: CCRIS mutagenicity studies. Particulars: Test System: AMES SALMONELLA TYPHIMURIUM
Where [1] appears, read: Strain/Indicator: TA100, Metabolic Activation: NONE, Method: STANDARD PLATE.

Activity calls are given as the source filed them. No rule for the calls is given here.

Turning to `CC(=O)Nc1cccc(O)c1`, the mutagenic call (Strain/Indicator: TA97, Metabolic Activation: HAMSTER, LIVER, S-9, AROCLOR 1254 (10 OR 30%), Method: PREINCUBATION) was “inactive; negative”; the mutagenic call (Strain/Indicator: TA97, Metabolic Activation: NONE, Method: PREINCUBATION) was “inactive; negative”; the mutagenic call (Strain/Indicator: TA97, Metabolic Activation: RAT, LIVER, S-9, AROCLOR 1254 (10 OR 30%), Method: PREINCUBATION) was “inactive; negative”; the mutagenic call (Strain/Indicator: TA98, Metabolic Activation: HAMSTER, LIVER, S-9, AROCLOR 1254 (10 OR 30%), Method: PREINCUBATION) is “inactive; negative”; the mutagenic call (Strain/Indicator: TA98, Metabolic Activation: NONE, Method: PREINCUBATION) is “inactive; negative”; the mutagenic call (Strain/Indicator: TA98, Metabolic Activation: RAT, LIVER, S-9, AROCLOR 1254 (10 OR 30%), Method: PREINCUBATION) was “inactive; negative”. Besides, the mutagenic call reads like this: (Strain/Indicator: TA100, Metabolic Activation: HAMSTER, LIVER, S-9, AROCLOR 1254 (10 OR 30%), Method: PREINCUBATION) “inactive; negative”; (Strain/Indicator: TA100, Metabolic Activation: NONE, Method: PREINCUBATION) “inactive; negative”; (Strain/Indicator: TA100, Metabolic Activation: RAT, LIVER, S-9, AROCLOR 1254 (10 OR 30%), Method: PREINCUBATION) “inactive; negative”; (Strain/Indicator: TA1535, Metabolic Activation: HAMSTER, LIVER, S-9, AROCLOR 1254 (10 OR 30%), Method: PREINCUBATION) “inactive; negative”; (Strain/Indicator: TA1535, Metabolic Activation: NONE, Method: PREINCUBATION) “inactive; negative”; (Strain/Indicator: TA1535, Metabolic Activation: RAT, LIVER, S-9, AROCLOR 1254 (10 OR 30%), Method: PREINCUBATION) “inactive; negative”.
With `O=c1c2ccc(OCC3CO3)cc2sn1CC1CO1` (stereo not drawn), the mutagenic call under setting [1] was “active; positive”.
With `CCCCOC(=O)c1cccc2cccnc12`, the mutagenic call is “inactive; negative” (Strain/Indicator: TA98, Metabolic Activation: NONE, Method: STANDARD PLATE); “inactive; negative” (Strain/Indicator: TA98, Metabolic Activation: RAT, LIVER, S-9, AROCLOR 1254, Method: STANDARD PLATE); “inactive; negative” under setting [1]; “inactive; negative” (Strain/Indicator: TA100, Metabolic Activation: RAT, LIVER, S-9, AROCLOR 1254, Method: STANDARD PLATE); “inactive; negative” (Strain/Indicator: TA1535, Metabolic Activation: NONE, Method: STANDARD PLATE); “inactive; negative” (Strain/Indicator: TA1535, Metabolic Activation: RAT, LIVER, S-9, AROCLOR 1254, Method: STANDARD PLATE). Moreover, the mutagenic call reads like this: (Strain/Indicator: TA1537, Metabolic Activation: NONE, Method: STANDARD PLATE) “inactive; negative”; (Strain/Indicator: TA1537, Metabolic Activation: RAT, LIVER, S-9, AROCLOR 1254, Method: STANDARD PLATE) “inactive; negative”.
Turning to `Cc1cc(C)cc(NO)c1`, the mutagenic call (Strain/Indicator: TA100, Metabolic Activation: RAT, LIVER, S-9, PCB, Method: PREINCUBATION) is “active; positive”.
Regarding `CCCCCN1C2c3ccccc3-c3ccccc3C21` (stereo not drawn), under setting [1], the mutagenic call is “active; positive”.
